Experimental data from patent US8206943B1, “Assay for PCSK9 inhibitors” (Schering Corporation, priority 2008, dated 2012).

Legend:
[1] = target: T1, PCSK9 (Homo sapiens, UniProt Q8NBP7); test: HPLC / chromatographic analysis of PCSK9 autoproteolysis (cis-cleavage) in the presence of inhibitors; assay type: biochemical; set-up: Pro-Cat-Domain Polypeptide; initiator Met (N); made in house; host or cells: E. coli BL-21(DE3)
Method: Unprocessed PCSK9 (18 μM for NanoStream experiment, 8 μM for BioRad Experion experiment) was incubated at 25° C. in 25 mM Hepes pH 7.5, 150 mM NaCl, 10% glycerol and 1 mM EDTA (4% DMSO may be added to uninhibited control assays when run in conjunction with assays that include inhibitors dissolved in DMSO). At the designated time points (t=0 minutes, 60 minutes and 240 minutes), aliquots from the 18 μM incubation were quenched by adding guanidine hydrochloride to a concentration of 6M, then the quenched reaction was applied (1 μl) to NanoStream Brio #4207007 (300 Å, C4) chromatography cassette. Following gradient elution, from the cassette, using 0.1% TFA in water (solvent A) and 0.085% TFA in acetonitrile (solvent B), the peaks were quantitated by absorbance at 214 nm.
Furthermore, a chromatographic analysis of PCSK9 autoproteolysis was performed in the presence of various inhibitors. This assay was used to determine the effect of the inhibitors Tris (2-carboxyethyl) phosphine (TCEP; a reducing agent) and tosyl-L-lysine chloromethyl ketone (TLCK) on the PCSK9 autoproteolysis reaction. In these assay, the ProCat peak is uncleaved PCSK9 whereas the Pro- and Cat-peaks indicate generation of the Pro- and Cat-domains, which indicates autoproteolytic cleavage by PCSK9. FIG. 5(a) sets forth the data in the assay wherein the Tris (2-carboxyethyl) phosphine inhibitor was assayed. […] In the control-A experiment, Tris (2-carboxyethyl) phosphine was added at t=zero minutes of a 6 hour incubation. Tris (2-carboxyethyl) phosphine is a disulfide reducing agent that is not oxidized by air.
In the control-B experiment set forth in FIG. 5(a), Tris (2-carboxyethyl) phosphine was added at the end of a 6 hour incubation. The appearance of the Pro- and Cat-domains in the control B assay indicate the occurrence of autoproteolysis.
FIG. 5(b) sets forth data wherein inhibition mediated by TCEP (Tris (2-carboxyethyl) phosphine) and TLCK (tosyl-L-lysine chloromethyl ketone) are compared, side-by-side, in an autoproteolysis assay. […] The inhibitors are added at time zero. TCEP was added at 5 mM to quench the reaction; this sample serves as the 100% inhibited control—Control A in FIG. 5. TLCK was added at a concentration of 77 μM.
An HPLC analysis was performed on unprocessed PCSK9. A sample containing 12 uM unprocessed PCSK9 in 25 mM Hepes buffer pH 7.5, 150 mM NaCl, 1 mM EDTA, 10% glycerol and 4.0% DMSO was incubated at 25° C. […] One microliter of the reaction mixture was analyzed directly by reversed phase-HPLC using Express-LC100, a micro fluidic chromatographic system from Eksigent. […] The flow rate was 12 uI per minute and the sample components were detected at 214 nm. The amount of ProCat polypeptide was calculated as % of sum of peak areas corresponding to Pro-, Cat- and ProCat domains. […]
Target sequence in this assay (Q8NBP7 with tags, fused parts or gaps): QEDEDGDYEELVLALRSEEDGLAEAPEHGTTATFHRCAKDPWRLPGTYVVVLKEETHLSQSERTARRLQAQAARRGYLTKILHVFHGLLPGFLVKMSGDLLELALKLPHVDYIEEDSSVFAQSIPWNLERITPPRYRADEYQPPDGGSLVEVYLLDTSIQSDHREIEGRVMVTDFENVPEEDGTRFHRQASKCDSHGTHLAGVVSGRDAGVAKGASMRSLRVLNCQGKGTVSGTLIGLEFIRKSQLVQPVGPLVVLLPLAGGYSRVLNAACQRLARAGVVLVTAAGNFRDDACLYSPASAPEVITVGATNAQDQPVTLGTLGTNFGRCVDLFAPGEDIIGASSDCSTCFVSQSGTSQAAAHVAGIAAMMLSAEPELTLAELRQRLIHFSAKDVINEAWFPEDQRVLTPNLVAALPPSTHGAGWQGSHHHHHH

[2] = target: T1, PCSK9; test: Cis-cleavage assay for PCSK9 using immuno-detection (ELISA of remaining FLAG-tag on HisSorb plate); assay type: biochemical; set-up: A DNA fragment corresponding to residues 31-454 of human PCSK9 (Pro-Cat domains) was made synthetically; made in house; host or cells: E. coli (pDest14 vector; expressed as for the first construct, BL-21(DE3)); details: 100 uM, 30° C. for 4 hours
Method: This example describes an assay to monitor the cis-cleavage of human PCSK9 using immuno-detection methods. A construct of human PCSK9 was created to have an N-terminal FLAG-tag and a (His)6-tag on the C-terminus. After incubation, the reaction was quenched and the domains were disassociated with 4.0 M urea. The protein was transferred to and bound, via the His-tag, to a HisSorb plate (Qiagen; Valencia, Calif.; nickel-nitrilotriacetic acid (Ni-NTA) coated plate). The amount of cleavage was determined by measuring the remaining FLAG-tag using standard ELISA techniques. Using this method, the sensitivity of the assay was increased at least 1000-fold over gel-based techniques and the micro-titer format makes the assay compatible with high throughput screening methods.
Cloning and expression. A DNA fragment corresponding to residues 31-454 of human PCSK9 (Pro-Cat domains) was made synthetically (GeneScript Corp., Piscataway, N.J.). Additional bases were included to add a Not1 restriction site and a Shine-Dalgarno initiation sequence to the 5′-end. A GS-(His)6 tag followed by a Asc1 restriction site was added to the 3′-end. A Gateway vector of PCSK9 was produced as FLAG-Pro-Cat(454)-GS-(His)6 by restriction digestion/ligation into the pDest14 expression vector. Expression and purification of the protein was done as previously described with aliquots frozen at −80° C. […]
Target sequence in this assay (Q8NBP7 31-454): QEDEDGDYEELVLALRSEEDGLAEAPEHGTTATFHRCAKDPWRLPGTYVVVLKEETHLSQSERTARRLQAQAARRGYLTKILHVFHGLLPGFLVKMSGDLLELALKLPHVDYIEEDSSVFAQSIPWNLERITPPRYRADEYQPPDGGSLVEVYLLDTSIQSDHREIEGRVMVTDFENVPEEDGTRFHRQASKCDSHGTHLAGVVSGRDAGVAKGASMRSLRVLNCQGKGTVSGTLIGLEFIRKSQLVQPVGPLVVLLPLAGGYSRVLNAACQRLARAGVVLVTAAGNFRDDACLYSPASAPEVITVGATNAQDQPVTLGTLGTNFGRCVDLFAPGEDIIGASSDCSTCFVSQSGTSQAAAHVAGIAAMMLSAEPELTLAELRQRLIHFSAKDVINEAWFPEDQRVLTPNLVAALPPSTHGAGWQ

[3] = 77 μM, added at time zero, FIG. 5(b)

| Compound | inhibition of cis-cleavage activity ([1]; 5 mM, added at t=zero minutes of a 6 hour incubation (control-A), FIG. 5(a)) | inhibition of cis-cleavage reaction ([1]; 77 uM, 6 hour incubation at 25° C., 12 uM unprocessed PCSK9) | Pro- and Cat-domains in comparison to Control-A (TCEP) [1, 3] | ProCat peak (uncleaved PCSK9) in comparison to Control-A (TCEP) [1, 3] | inhibition of cis-cleavage (negative control) [2] [%] |
| --- | --- | --- | --- | --- | --- |
| O=C(O)CCP(CCC(=O)O)CCC(=O)O [TCEP, Tris (2-carboxyethyl) phosphine] | complete inhibition | – | – | – | – |
| tosyl-L-lysine chloromethyl ketone [TLCK] | – | significant inhibition | slight increase | small decrease | 100 |
